What all share (assay): inhibition of tumour cell growth, NCI panel, 48 h
The subject of experiment [1] is 786-0 renal.
The subject of experiment [2] is HCC-2998 colon.
Experiment [3] has as its system OVCAR-8 ovarian.
Experiment [4] has as its system RXF 393 renal.
For experiment [5], the system named is SF-268 CNS.
The test system of experiment [6] is SK-MEL-28 melanoma.
For experiment [7], the system named is SK-MEL-5 melanoma.
The subject of experiment [8] is ACHN renal.
Experiment [9] concerns IGROV1 ovarian.
The subject of experiment [10] is OVCAR-4 ovarian.

Values joined by “and” are separate entries in the source; they are usually repeats but may differ in a detail not shown here. Equal values may be shown once.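 A five-concentration, 48-hour dose response in 96-well plates underlies each endpoint, interpolated linearly between surrounding concentrations. The concentration for 50% growth inhibition is given as GI50. TGI marks complete inhibition of growth.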

The values below come from PubChem BioAssay (NCI).

On to `COc1ncc(-c2ccc3ncnc(Nc4cccc(Cl)c4)c3c2)cc1NS(=O)(=O)C1CC1`, for which the GI50 in [1] is 4.82 µM; in experiment [2], > 100 µM; in experiment [3], 2.18 µM; in experiment [4], 0.519 µM; in experiment [5], 1.54 µM; in experiment [6], > 100 µM. The GI50 in experiment [7] was > 100 µM. Moreover, the TGI in experiment [1], in [2], in experiment [3], in experiment [4], in experiment [5] and in [6] was > 100 µM throughout. Besides, the TGI in experiment [7] is > 100 µM.

As for `CC(C)C(=O)NS(=O)(=O)c1ccccc1`, the TGI in experiment [1], in experiment [8], in experiment [2], in [9], in [10] and in experiment [3] was > 100 µM throughout. Moreover, the TGI in experiment [4], in experiment [5] and in [6] was > 100 µM in each case.

In the case of `C#COc1cccc(Nc2c(C#N)cnc3ncc(NC(=O)CCl)cc23)c1`, the GI50 is 36.6 µM in [1]; 22.9 µM in [8]; > 62.5 µM in experiment [2]; 17.1 µM in [9]; 46 µM in experiment [3]; > 62.5 µM in experiment [4]. The values for the GI50 in experiment [5], in experiment [6] and in [7] were 20.6 µM, > 62.5 µM and > 62.5 µM, respectively. For the same molecule, the TGI in experiment [1], in [8], in experiment [2], in [9], in experiment [3] and in [4] was > 62.5 µM each time. Besides, the TGI in [5], in experiment [6] and in experiment [7] was > 62.5 µM in each case.

Take `Cc1nc(-[n+]2nc(-c3ccncc3)nn2-c2ccccc2)sc1C`: the TGI is > 100 µM in [1]; > 100 µM in experiment [8]; > 100 µM in experiment [2]; > 100 µM in experiment [9]; > 100 µM in [3]; 45.9 µM in [4]. The TGI in experiment [5], in experiment [6] and in experiment [7] was > 100 µM throughout.

`Cc1c(/C=N/NC(=O)c2ccc(Cl)cc2)c(=O)n(-c2ccccc2)n1C`: the TGI in experiment [1], in experiment [8], in experiment [2], in experiment [9], in experiment [10] and in experiment [3] was > 100 µM each time. For the same molecule, the TGI in [4], in experiment [5] and in experiment [6] was > 100 µM each time.

For the molecule `O=P1(c2ccccc2)CCCCC1`, the TGI in [1], in experiment [8], in [2], in [9], in experiment [10] and in [3] was > 100 µM each time. For the same molecule, the TGI in experiment [4], in experiment [6] and in [7] was > 100 µM throughout.

Regarding `COC(=O)[C@@H](C)C[C@H](Cc1ccccc1)NC(=O)c1csc([C@@H](C[C@H](C(C)C)N(C)C(=O)[C@@H](NC(=O)[C@H]2CCCCN2C)C2CCCCC2)OC(C)=O)n1`, the GI50 in experiment [1] was 0.00175 µM and 0.0025 µM; in experiment [8], 0.000746 µM and 0.0025 µM; in experiment [2] it was 0.000455 µM and 0.0025 µM; in experiment [9], 0.000631 µM and 0.0025 µM; in experiment [3] it was 0.00354 µM and 0.0025 µM; in experiment [4] it was 0.00103 µM. Besides, the GI50 in [5] was 0.00375 µM and 0.0025 µM. The TGI is 2.74 µM in experiment [1]; > 25 µM in [8]; > 25 µM in [2]; > 25 µM in experiment [9]; > 25 µM in [10]; > 25 µM in experiment [3]. The TGI was > 25 µM in [5]; 0.0131 µM and 0.0115 µM in [7].

On to `CC1COC(C)(C)P(=O)(c2ccccc2)C1` (stereo not given), for which the TGI in experiment [1], in [8], in experiment [2], in experiment [9], in [3] and in [4] was > 100 µM each time. The TGI in experiment [6] and in experiment [7] was > 100 µM each time.

Take `CCn1c(=O)c2c(=O)c3c4c(oc3oc2c2ccccc21)C(=O)c1ccccc1C4=O`: the GI50 in experiment [1] is > 22.7 µM; in experiment [2], > 100 µM; in experiment [9], > 50.1 µM; in experiment [10] it was 0.376 µM; in experiment [3], 3.3 µM; in experiment [4], > 31.7 µM. Also, the figures for the GI50 in experiment [5], in [6] and in [7] were > 71 µM, > 100 µM and > 100 µM, respectively. For the same molecule, the TGI was > 100 µM in [1]; > 100 µM in experiment [2]; > 100 µM in [9]; 1.5 µM in experiment [10]; > 100 µM in [3]; > 100 µM in experiment [4]. The TGI in experiment [5], in experiment [6] and in experiment [7] was > 100 µM in each case.

For `NC(=O)OCCn1cc(-c2nc(-c3c[nH]c4ncccc34)cs2)c2ccccc21`, the GI50 in experiment [1] is 2.38 µM; in experiment [8], 2.05 µM; in [2], 1.99 µM; in experiment [9], 0.138 µM; in experiment [10] it was 1.78 µM; in experiment [4] it was 1.78 µM. The GI50 in experiment [5] was 1.48 µM; in experiment [6], 2.05 µM; in experiment [7] it was 1.41 µM. In addition, the TGI in [1] is 7.23 µM; in [8], 8.24 µM; in experiment [2] it was 6.54 µM; in experiment [9] it was 1.95 µM; in experiment [10], 11.9 µM; in experiment [4] it was 5.56 µM. Besides, the TGI amounted to 6.77 µM in experiment [5], 14.8 µM in experiment [6] and 2.85 µM in [7].

In the case of `Cc1ccc(S(=O)(=O)c2ccc(N)cc2)cc1`, the TGI in [1], in experiment [8], in [2], in experiment [9], in [10] and in experiment [3] was > 100 µM throughout. Further, the TGI in experiment [4], in experiment [6] and in experiment [7] was > 100 µM each time.

Consider `Cc1cc(NS(=O)(=O)c2ccc(Nc3c4ccccc4nc4c(C(=O)N5CCN(CCO)CC5)ccc(Cl)c34)cc2)no1`, for which the TGI in experiment [1], in [2], in [9], in [10], in [3] and in experiment [4] was > 100 µM in each case. Besides, the TGI in [5], in experiment [6] and in [7] was > 100 µM each time.

Regarding `C1=C\COCc2cc(ccc2OCCN2CCCC2)Nc2nccc(n2)-c2cccc(c2)COC/1`, the GI50 in [1] is 3.51 µM; in experiment [8], 1.12 µM; in experiment [2], 2.3 µM; in experiment [9], 0.871 µM; in experiment [10], 3.79 µM; in experiment [3], 3.22 µM. Moreover, the figures for the GI50 in [4], in experiment [5] and in [6] were 1.05 µM, 2.03 µM and 2.1 µM, respectively. Also, the TGI in [1] turned out to be 5.18 µM; in [8], 4.8 µM; in experiment [2], 5.37 µM; in experiment [9] it was 3.85 µM; in experiment [10] it was 6.56 µM; in [3] it was 7.32 µM. For the same molecule, the values for the TGI in [4], in [5] and in [6] were 2.9 µM, 5.77 µM and 5.33 µM, respectively.

For `S=c1[nH]c(=S)c2nnn(-c3ccccc3)c2[nH]1`, the TGI in experiment [1], in experiment [8], in [2], in [9], in [3] and in experiment [4] was > 100 µM in each case. Also, the TGI in experiment [5], in experiment [6] and in [7] was > 100 µM in each case.

Consider `[N-]=[N+]=Nc1cc(=O)n2c3c(cccc13)CCC2`, for which the TGI in experiment [1], in [8], in experiment [2], in experiment [9], in [10] and in [3] was > 100 µM in each case. Besides, the TGI in experiment [4], in [5] and in [6] was > 100 µM each time.

Turning to `COc1cc2c(c(OC)c1OC)-c1ncc3cc4c(cc3c1C2)OCO4`, the GI50 in experiment [1] is 30.2 µM; in experiment [8], 28.8 µM; in experiment [2], 17.4 µM; in experiment [9], 12.8 µM; in experiment [10], 46.3 µM; in experiment [3], 13.9 µM. For the same molecule, the figures for the GI50 in experiment [4], in [6] and in [7] were 24.2 µM, 54.6 µM and 17.4 µM, respectively. Also, the TGI in [1] was > 100 µM; in [8] it was 73.6 µM; in experiment [2] it was 48.1 µM; in [9] it was > 100 µM; in experiment [10] it was > 100 µM; in experiment [3], 36.9 µM. Moreover, the values for the TGI in experiment [4], in experiment [6] and in experiment [7] were 83.8 µM, > 100 µM and 36.5 µM, respectively.

Turning to `COC(=O)[C@H]1C=C[C@@H](C)n2c(=O)c3cc4ccccc4cc3c(=O)n21`, the TGI in experiment [1], in experiment [8], in experiment [2], in experiment [9], in experiment [3] and in experiment [4] was > 100 µM each time. Also, the TGI in experiment [5], in [6] and in experiment [7] was > 100 µM each time.

Turning to `[N-]=[N+]=Nc1cc(=O)[nH]nc1-c1ccccc1`, the TGI in [1], in [8], in experiment [2], in experiment [9], in [10] and in [3] was > 100 µM each time. For the same molecule, the TGI in experiment [4], in experiment [5] and in experiment [6] was > 100 µM each time.

Regarding `N#CC(C(=O)C(=O)Nc1ccc(Cl)cc1)c1ccccc1` (stereo not given), the TGI in [1], in [8], in experiment [2], in experiment [9], in experiment [10] and in experiment [4] was > 100 µM throughout. Moreover, the TGI in experiment [5], in experiment [6] and in experiment [7] was > 100 µM throughout.

Regarding `N#CC1=C(N)Oc2cc(O)ccc2C1c1cccc2ccccc12` (stereo not given), the GI50 in experiment [1] was 13.4 µM; in experiment [8], 17.2 µM; in [2], 3 µM; in [9], 13.1 µM; in [10] it was 13.1 µM; in experiment [3], 23.7 µM. In addition, the GI50 in experiment [5] is 14.5 µM; in [6], 12.7 µM; in [7], 4.83 µM. Further, the TGI in [1] stood at 29.8 µM; in experiment [8] it was 35 µM; in [2] it was 13.9 µM; in experiment [9] it was 29.4 µM; in experiment [10] it was 31.5 µM; in [3], 66.1 µM. Also, the TGI in experiment [5] came out at 40.4 µM; in experiment [6] it was 27.9 µM; in [7], 19.4 µM.

`C/C(CC(=O)Nc1cccc(Cl)c1C)=N\NC(=O)c1ccncc1`: the TGI was > 100 µM in experiment [1]; > 100 µM in experiment [2]; > 100 µM in experiment [9]; > 100 µM in experiment [3]; 87.9 µM in experiment [4]; > 100 µM in experiment [5]. The TGI in [6] and in experiment [7] was > 100 µM throughout.

Regarding `CC(=O)O[C@H]1CCC2[C@@H]3CCC4Nc5[nH]ncc5C[C@]4(C)C3CC[C@@]21C` (stereo not given in full), the TGI is > 100 µM in [1]; > 100 µM in experiment [8]; 79.7 µM in experiment [2]; > 100 µM in experiment [9]; > 100 µM in experiment [10]; > 100 µM in experiment [3]. The TGI in experiment [4] was > 100 µM; in [5], > 100 µM; in [7] it was 74.9 µM.

`O=Cc1ccc2c(c1-c1c(C=O)ccc3c1OCO3)OCO2`: the TGI in experiment [1], in [8], in experiment [2], in experiment [9], in experiment [10] and in [3] was > 100 µM in each case. The TGI in [5], in experiment [6] and in experiment [7] was > 100 µM throughout.
